Assays:
Experiment in all cases: Determination of PI3K Activity
Settings in all cases: pH 7.4; 22 °C
[1] = target: Phosphatidylinositol 3-kinase regulatory subunit alpha/4,5-bisphosphate 3-kinase catalytic subunit alpha isoform (Homo sapiens, UniProt P42336)
[2] = target: Phosphatidylinositol 3-kinase regulatory subunit alpha/4,5-bisphosphate 3-kinase catalytic subunit beta isoform (Homo sapiens, UniProt P42338)
[3] = target: Phosphatidylinositol 3-kinase regulatory subunit alpha/4,5-bisphosphate 3-kinase catalytic subunit delta isoform (Homo sapiens, UniProt O00329)
Phosphatidylinositol 3-kinase regulatory subunit alpha/4,5-bisphosphate 3-kinase catalytic subunit delta isoform, sequence (P27986 whole entry, canonical isoform): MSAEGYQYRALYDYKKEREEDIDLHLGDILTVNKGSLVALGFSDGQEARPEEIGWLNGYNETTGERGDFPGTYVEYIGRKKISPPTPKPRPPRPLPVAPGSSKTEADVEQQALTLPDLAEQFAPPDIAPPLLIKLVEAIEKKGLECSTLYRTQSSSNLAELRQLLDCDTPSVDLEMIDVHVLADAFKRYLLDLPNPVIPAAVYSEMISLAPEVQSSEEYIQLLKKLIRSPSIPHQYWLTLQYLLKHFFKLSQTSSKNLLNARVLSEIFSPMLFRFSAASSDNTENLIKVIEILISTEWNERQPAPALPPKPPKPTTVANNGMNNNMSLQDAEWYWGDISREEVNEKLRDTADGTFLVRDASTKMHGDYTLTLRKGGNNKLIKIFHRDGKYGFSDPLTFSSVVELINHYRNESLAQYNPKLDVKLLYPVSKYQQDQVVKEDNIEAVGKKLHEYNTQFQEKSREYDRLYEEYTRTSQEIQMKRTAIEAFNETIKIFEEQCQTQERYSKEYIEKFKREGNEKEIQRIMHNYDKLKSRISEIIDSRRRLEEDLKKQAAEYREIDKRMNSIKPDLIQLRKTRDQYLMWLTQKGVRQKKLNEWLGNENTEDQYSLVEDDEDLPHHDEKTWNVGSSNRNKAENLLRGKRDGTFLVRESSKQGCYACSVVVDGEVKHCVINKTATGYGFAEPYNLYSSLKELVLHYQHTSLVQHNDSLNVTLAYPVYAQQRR
Phosphatidylinositol 3-kinase regulatory subunit alpha/4,5-bisphosphate 3-kinase catalytic subunit delta isoform, sequence (O00329 whole entry, canonical isoform): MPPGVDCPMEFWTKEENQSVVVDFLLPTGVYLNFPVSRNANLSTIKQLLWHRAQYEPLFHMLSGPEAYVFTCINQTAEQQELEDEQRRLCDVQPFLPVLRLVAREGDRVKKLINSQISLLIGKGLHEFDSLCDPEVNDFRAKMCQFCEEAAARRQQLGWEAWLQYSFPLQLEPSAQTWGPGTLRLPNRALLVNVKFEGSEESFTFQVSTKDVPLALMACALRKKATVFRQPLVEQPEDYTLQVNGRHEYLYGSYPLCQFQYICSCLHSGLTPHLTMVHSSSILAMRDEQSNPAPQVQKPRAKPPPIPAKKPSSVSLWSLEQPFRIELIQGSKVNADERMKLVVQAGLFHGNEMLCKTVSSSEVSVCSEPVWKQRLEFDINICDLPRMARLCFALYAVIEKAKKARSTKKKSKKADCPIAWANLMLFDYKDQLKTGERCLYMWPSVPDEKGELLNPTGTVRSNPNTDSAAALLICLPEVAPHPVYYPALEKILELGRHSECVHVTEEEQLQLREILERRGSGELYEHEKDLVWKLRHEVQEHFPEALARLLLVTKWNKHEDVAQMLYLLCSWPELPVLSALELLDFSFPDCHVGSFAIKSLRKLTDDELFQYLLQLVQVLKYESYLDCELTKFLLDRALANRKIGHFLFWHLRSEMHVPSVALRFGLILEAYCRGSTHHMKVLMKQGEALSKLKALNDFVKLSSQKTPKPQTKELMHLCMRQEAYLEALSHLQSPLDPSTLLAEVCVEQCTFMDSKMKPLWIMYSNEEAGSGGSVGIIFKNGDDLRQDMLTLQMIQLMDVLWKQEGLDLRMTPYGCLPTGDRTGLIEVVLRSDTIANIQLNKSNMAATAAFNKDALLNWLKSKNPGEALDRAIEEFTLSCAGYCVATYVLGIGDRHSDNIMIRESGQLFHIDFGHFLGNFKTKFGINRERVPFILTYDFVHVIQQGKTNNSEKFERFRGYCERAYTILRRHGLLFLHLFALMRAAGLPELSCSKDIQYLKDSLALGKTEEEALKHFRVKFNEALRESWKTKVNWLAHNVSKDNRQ

Phosphatidylinositol 3-kinase regulatory subunit alpha/4,5-bisphosphate 3-kinase catalytic subunit beta isoform, sequence (P27986 whole entry, canonical isoform): as the sequence (P27986 whole entry, canonical isoform) above
Phosphatidylinositol 3-kinase regulatory subunit alpha/4,5-bisphosphate 3-kinase catalytic subunit beta isoform, sequence (P42338 whole entry, canonical isoform): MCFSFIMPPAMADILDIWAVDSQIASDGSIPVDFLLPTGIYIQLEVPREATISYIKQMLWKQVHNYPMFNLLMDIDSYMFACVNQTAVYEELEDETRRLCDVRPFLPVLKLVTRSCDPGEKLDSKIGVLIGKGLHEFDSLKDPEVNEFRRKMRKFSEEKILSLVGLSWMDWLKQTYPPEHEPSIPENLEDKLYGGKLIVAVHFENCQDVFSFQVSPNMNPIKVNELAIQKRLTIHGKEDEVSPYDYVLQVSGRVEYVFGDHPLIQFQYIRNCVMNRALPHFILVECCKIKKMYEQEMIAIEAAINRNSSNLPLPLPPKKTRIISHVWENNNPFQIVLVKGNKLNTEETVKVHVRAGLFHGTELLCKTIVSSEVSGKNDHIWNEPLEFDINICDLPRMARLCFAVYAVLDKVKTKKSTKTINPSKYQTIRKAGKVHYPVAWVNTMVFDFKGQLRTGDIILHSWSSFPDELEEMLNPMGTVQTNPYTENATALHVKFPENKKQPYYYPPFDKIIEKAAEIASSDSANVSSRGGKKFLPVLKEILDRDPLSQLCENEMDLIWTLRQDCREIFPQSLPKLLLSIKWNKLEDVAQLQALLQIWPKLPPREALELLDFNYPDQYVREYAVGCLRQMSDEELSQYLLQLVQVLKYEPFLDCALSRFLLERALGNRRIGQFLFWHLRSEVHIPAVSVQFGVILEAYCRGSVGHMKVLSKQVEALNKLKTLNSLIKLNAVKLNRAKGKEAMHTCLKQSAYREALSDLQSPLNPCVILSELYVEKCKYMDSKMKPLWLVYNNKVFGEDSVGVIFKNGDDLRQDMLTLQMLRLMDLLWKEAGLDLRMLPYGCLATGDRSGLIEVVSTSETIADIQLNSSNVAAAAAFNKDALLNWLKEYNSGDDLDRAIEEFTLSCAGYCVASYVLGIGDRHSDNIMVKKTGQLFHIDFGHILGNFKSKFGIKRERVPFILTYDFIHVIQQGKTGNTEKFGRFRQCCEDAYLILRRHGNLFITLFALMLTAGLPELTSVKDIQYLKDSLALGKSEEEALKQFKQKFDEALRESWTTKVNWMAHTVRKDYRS
Phosphatidylinositol 3-kinase regulatory subunit alpha/4,5-bisphosphate 3-kinase catalytic subunit alpha isoform, sequence (P27986 whole entry, canonical isoform): as the sequence (P27986 whole entry, canonical isoform) above
Phosphatidylinositol 3-kinase regulatory subunit alpha/4,5-bisphosphate 3-kinase catalytic subunit alpha isoform, sequence (P42336 whole entry, canonical isoform): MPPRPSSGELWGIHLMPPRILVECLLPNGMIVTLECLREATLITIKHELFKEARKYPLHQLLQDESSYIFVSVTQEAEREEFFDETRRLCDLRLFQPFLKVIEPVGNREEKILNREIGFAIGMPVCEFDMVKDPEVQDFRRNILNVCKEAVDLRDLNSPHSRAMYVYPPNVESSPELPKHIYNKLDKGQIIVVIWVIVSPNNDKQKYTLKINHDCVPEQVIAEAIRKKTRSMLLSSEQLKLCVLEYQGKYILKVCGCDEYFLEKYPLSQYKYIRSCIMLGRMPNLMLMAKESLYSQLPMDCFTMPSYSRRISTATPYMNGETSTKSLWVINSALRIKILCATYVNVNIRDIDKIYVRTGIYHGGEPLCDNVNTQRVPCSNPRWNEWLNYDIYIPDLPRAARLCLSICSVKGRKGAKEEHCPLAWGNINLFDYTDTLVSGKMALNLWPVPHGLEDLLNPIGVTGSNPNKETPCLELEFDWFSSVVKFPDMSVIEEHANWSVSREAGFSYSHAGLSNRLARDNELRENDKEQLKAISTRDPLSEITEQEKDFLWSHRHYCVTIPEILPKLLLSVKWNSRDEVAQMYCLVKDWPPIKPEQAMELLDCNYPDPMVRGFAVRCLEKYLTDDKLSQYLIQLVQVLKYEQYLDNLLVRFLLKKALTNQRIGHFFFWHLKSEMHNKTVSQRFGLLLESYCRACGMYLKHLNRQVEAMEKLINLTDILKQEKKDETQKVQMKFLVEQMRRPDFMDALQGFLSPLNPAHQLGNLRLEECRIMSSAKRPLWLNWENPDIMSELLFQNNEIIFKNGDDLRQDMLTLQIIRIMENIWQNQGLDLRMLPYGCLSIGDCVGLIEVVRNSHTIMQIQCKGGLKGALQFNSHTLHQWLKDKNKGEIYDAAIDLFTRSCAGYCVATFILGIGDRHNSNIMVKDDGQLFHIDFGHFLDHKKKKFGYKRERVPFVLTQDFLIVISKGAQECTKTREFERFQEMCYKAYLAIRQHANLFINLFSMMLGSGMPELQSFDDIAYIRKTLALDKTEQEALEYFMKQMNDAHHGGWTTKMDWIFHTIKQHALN

## Nc1nc(N)c2nc(-c3cccc4[nH]ccc34)cnc2n1 [6-(1H-indol-4-yl)pteridine-2,4-diamine]
[1]
  IC50: 1200 nM
[2]
  IC50: 107 nM
[3]
  IC50: 64 nM

## O=c1cc(N2CCOCC2)oc2c(-c3ccccc3)cccc12
[3]
  IC50: 561 nM

Source: BindingDB's records for doi:10.1073/pnas.0606956103 (Targegen, 2006)
